Here are results for 15 molecules from patent US20180194762A1 (Pharmacyclics LLC, priority 2017, published 2018).

Type in all cases: biochemical
The target in assay [1] is T1, TEC (Homo sapiens, UniProt P42680).
T1 sequence (P42680 1-631): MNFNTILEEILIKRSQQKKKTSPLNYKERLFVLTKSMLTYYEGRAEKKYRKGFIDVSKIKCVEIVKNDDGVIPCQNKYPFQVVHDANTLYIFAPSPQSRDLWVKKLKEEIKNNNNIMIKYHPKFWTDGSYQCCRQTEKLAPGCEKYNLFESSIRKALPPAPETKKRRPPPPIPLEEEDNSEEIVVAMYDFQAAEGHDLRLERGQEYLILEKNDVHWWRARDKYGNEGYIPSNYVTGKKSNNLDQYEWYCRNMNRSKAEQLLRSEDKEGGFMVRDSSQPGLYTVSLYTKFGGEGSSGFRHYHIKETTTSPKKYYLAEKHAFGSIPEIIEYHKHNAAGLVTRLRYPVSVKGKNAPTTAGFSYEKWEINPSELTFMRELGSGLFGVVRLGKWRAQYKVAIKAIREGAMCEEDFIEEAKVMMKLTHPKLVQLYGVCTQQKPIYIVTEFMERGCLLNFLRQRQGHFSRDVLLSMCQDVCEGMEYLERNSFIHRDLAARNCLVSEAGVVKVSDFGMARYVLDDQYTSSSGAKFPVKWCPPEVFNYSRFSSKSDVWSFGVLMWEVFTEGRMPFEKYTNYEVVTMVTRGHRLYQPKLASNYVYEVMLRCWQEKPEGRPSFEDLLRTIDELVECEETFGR
The assay can be described thus: Inhibition of a panel of kinases (in vitro HotSpot kinase assay, 33P-ATP, 1 μM ATP). Conditions: HotSpot kinase assay, 1 μM ATP. A digest of the protocol: (§1)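 Purified kinase enzymes were incubated with an appropriate substrate and 33P-labelled ATP at 1 μM ATP. Inhibition was measured radiometrically from incorporation of the 33P label.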

Assay [2] deals with T2, Btk (Homo sapiens, UniProt Q06187).
T2 construct: purified from insect cells as a full-length construct containing a N-terminal 6X-His tag; His6 (N); made in house; host or cells: insect cells (Method C)
T2 sequence (Q06187 whole entry): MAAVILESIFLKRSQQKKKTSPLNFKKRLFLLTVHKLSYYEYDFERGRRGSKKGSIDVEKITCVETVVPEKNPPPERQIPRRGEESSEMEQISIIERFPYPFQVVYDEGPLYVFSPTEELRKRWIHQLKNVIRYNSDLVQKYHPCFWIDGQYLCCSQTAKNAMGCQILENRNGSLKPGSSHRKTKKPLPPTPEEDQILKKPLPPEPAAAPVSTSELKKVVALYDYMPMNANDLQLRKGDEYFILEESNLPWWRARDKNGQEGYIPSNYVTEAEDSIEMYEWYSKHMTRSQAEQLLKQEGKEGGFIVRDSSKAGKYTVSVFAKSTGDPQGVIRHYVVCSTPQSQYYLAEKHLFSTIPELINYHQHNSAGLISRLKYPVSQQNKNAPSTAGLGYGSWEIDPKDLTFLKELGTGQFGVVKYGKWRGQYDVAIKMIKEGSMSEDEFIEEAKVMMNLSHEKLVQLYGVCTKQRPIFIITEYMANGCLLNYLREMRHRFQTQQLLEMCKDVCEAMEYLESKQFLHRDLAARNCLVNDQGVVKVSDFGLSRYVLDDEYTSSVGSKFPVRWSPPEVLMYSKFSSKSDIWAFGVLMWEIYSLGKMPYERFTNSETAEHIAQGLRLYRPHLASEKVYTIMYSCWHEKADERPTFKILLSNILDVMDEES
Nature of the assay: Btk in vitro inhibitory activity (one of Method A TR-FRET, Method B electrophoretic mobility shift, Method C radiometric filter binding). Conditions: wild-type Btk; read-out: Btk-WT IC50. A digest of the protocol:
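Method A: TR-FRET with 0.5 nM Btk at [ATP]=Km, EDTA-quenched, 665/615 nm ratio; Ki(app) converted to IC50. Method B: 1 nM full-length His6 human BTK, 1 μM FAM peptide, pH 7.5, mobility-shift product/sum ratio, 12-point 4-parameter fit. Method C: radiometric filter binding, 8 nM His-tagged BTK, 0.2 mg/mL poly-Glu-Tyr.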

In assay [3] the target is T3, panel of kinases (Homo sapiens, UniProt P51813).
T3 sequence (P51813 1-675): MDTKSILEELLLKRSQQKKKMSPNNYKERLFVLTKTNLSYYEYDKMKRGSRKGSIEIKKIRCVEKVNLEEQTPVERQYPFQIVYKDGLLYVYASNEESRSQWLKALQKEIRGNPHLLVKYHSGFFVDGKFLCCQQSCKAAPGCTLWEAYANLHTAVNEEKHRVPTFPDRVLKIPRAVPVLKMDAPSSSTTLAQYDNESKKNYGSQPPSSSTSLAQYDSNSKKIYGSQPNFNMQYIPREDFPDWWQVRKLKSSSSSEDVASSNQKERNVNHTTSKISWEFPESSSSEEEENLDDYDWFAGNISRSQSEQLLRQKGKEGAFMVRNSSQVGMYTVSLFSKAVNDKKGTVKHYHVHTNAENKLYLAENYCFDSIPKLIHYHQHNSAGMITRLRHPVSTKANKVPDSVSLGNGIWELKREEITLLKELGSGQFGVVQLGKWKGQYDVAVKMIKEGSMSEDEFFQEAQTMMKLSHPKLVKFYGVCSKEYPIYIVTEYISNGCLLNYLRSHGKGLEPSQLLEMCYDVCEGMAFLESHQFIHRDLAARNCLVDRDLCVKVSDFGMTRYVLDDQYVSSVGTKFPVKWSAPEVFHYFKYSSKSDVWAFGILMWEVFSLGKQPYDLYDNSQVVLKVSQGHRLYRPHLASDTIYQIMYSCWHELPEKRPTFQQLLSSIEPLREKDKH
The assay can be described thus: Inhibition of a panel of kinases (in vitro HotSpot kinase assay, 33P-ATP, 1 μM ATP), other kinases. Conditions: BMX wild-type, read-out: BMX-WT IC50. An outline of the steps: as §1

As to `C=CC(=O)N[C@@H]1CCN(c2n[nH]c3nccc(-c4ccc(CNC(=O)c5nc(C(C)(C)C)no5)c(F)c4)c23)C1` [Example 331, 3-tert-butyl-N-{[2-fluoro-4-(3-{(3R)-3-[(prop-2-enoyl)amino]pyrrolidin-1-yl}-1H-pyrazolo[3,4-b]pyridin-4-yl)phenyl]methyl}-1,2,4-oxadiazole-5-carboxamide], the IC50 (usually the concentration that gives 50% inhibition) was found to be 30 nM in assay [1], 0.0353 nM in assay [2] and 33.2 nM in assay [3].

In the case of `CNC1CCN(c2n[nH]c3nccc(-c4ccc(CNC(=O)c5nc(C(C)(C)C)no5)c(F)c4)c23)C1` (stereo not drawn) [Example 333, 3-tert-butyl-N-[(2-fluoro-4-{3-[3-(methylamino)pyrrolidin-1-yl]-1H-pyrazolo[3,4-b]pyridin-4-yl}phenyl)methyl]-1,2,4-oxadiazole-5-carboxamide], the IC50 came to 4360 nM in assay [1], 1.26 nM in assay [2] and 4470 nM in assay [3].

As for `CN(Cc1ccc(-c2ccnc3[nH]nc(N4CC[C@@H](N)C4)c23)cc1F)C(=O)c1nc(C(C)(C)C)no1` [Example 334, (R)-N-({4-[3-(3-aminopyrrolidin-1-yl)-1H-pyrazolo[3,4-b]pyridin-4-yl]-2-fluorophenyl}methyl)-3-tert-butyl-N-methyl-1,2,4-oxadiazole-5-carboxamide], the IC50 worked out at 4170 nM in assay [1], 1.43 nM in assay [2] and 1920 nM in assay [3].

On to `C=CC(=O)N[C@@H]1CCN(c2n[nH]c3nccc(-c4ccc(CN(C)C(=O)c5nc(C(C)(C)C)no5)c(F)c4)c23)C1` [Example 335, 3-tert-butyl-N-{[2-fluoro-4-(3-{(3R)-3-[(prop-2-enoyl)amino]pyrrolidin-1-yl}-1H-pyrazolo[3,4-b]pyridin-4-yl)phenyl]methyl}-N-methyl-1,2,4-oxadiazole-5-carboxamide], for which the IC50 in assay [1] is 57.7 nM; in assay [2], 0.0513 nM; in assay [3] it was 61.3 nM.

Consider `CNC1CCN(c2n[nH]c3nccc(-c4ccc(CN(C)C(=O)c5nc(C(C)(C)C)no5)c(F)c4)c23)C1` (stereo not drawn) [Example 337, 3-tert-butyl-N-[(2-fluoro-4-{3-[3-(methylamino)pyrrolidin-1-yl]-1H-pyrazolo[3,4-b]pyridin-4-yl}phenyl)methyl]-N-methyl-1,2,4-oxadiazole-5-carboxamide], for which the IC50 was 8030 nM in assay [1], 2.35 nM in assay [2] and 5200 nM in assay [3].

`C=CC(=O)N(C)[C@@H]1CCN(c2n[nH]c3nccc(-c4ccc(CN(C)C(=O)c5nc(C(C)(C)C)no5)c(F)c4)c23)C1` [Example 338, 3-tert-butyl-N-{[2-fluoro-4-(3-{(3R)-3-[methyl(prop-2-enoyl)amino]pyrrolidin-1-yl}-1H-pyrazolo[3,4-b]pyridin-4-yl)phenyl]methyl}-N-methyl-1,2,4-oxadiazole-5-carboxamide]: the IC50 in assay [1] amounted to 22.7 nM; in assay [2], 0.0678 nM; in assay [3], 28.3 nM.

As to `C=CC(=O)N1CC[C@@H](Nc2n[nH]c3nccc(-c4ccc(CNC(=O)c5cc(Cl)on5)c(F)c4)c23)C1` [Example 342, 5-chloro-N-{[2-fluoro-4-(3-{[(3R)-1-(prop-2-enoyl)pyrrolidin-3-yl]amino}-1H-pyrazolo[3,4-b]pyridin-4-yl)phenyl]methyl}-1,2-oxazole-3-carboxamide], the results for the IC50 in assay [1], in assay [2] and in assay [3] were 210 nM, 3.77 nM and 28.8 nM, respectively.

Regarding `C=CC(=O)N1CC[C@@H](Nc2n[nH]c3nccc(-c4ccc(CNC(=O)c5cc(-c6ccccc6)on5)c(F)c4)c23)C1` [Example 345, N-{[2-fluoro-4-(3-{[(3R)-1-(prop-2-enoyl)pyrrolidin-3-yl]amino}-1H-pyrazolo[3,4-b]pyridin-4-yl)phenyl]methyl}-5-phenyl-1,2-oxazole-3-carboxamide], the IC50 in assay [1] came to 253 nM; in assay [2], 30.6 nM; in assay [3], 55.7 nM.

Consider `C=CC(=O)N(C)[C@@H]1CCN(c2n[nH]c3nccc(-c4ccc(CNC(=O)c5nc(C(C)(C)C)no5)c(F)c4)c23)C1` [Example 347, 3-tert-butyl-N-{[2-fluoro-4-(3-{(3R)-3-[methyl(prop-2-enoyl)amino]pyrrolidin-1-yl}-1H-pyrazolo[3,4-b]pyridin-4-yl)phenyl]methyl}-1,2,4-oxadiazole-5-carboxamide], for which the IC50 in assay [1] turned out to be 9.02 nM; in assay [2], 0.0423 nM; in assay [3], 15.8 nM.

In the case of `CC(=O)N[C@@H]1CCN(c2n[nH]c3nccc(-c4ccc([C@@H](C)NC(=O)c5cc(C(C)(C)O)on5)c(F)c4)c23)C1` [Example 349, N-[(1R)-1-(4-{3-[(3R)-3-acetamidopyrrolidin-1-yl]-1H-pyrazolo[3,4-b]pyridin-4-yl}-2-fluorophenyl)ethyl]-5-(2-hydroxypropan-2-yl)-1,2-oxazole-3-carboxamide], the IC50 in assay [1] came out at 1480 nM; in assay [2], 3.99 nM; in assay [3], 1330 nM.

As for `C=CC(=O)N1CC[C@@H](Nc2n[nH]c3nccc(-c4ccc(CNC(=O)c5ccc6c(c5)OCCCO6)c(F)c4)c23)C1` [Example 351, (R)-N-{[2-fluoro-4-(3-{[1-(prop-2-enoyl)pyrrolidin-3-yl]amino}-1H-pyrazolo[3,4-b]pyridin-4-yl)phenyl]methyl}-3,4-dihydro-2H-1,5-benzodioxepine-7-carboxamide], the figures for the IC50 in assay [1], in assay [2] and in assay [3] were 340 nM, 4.43 nM and 95.7 nM, respectively.

Take `C=CC(=O)N[C@@H]1CCN(c2n[nH]c3nccc(-c4ccc([C@@H](C)NC(=O)c5cc(C(C)(C)O)on5)c(F)c4)c23)C1` [Example 353, N-{(1R)-1-[2-fluoro-4-(3-{(3R)-3-[(prop-2-enoyl)amino]pyrrolidin-1-yl}-1H-pyrazolo[3,4-b]pyridin-4-yl)phenyl]ethyl}-5-(2-hydroxypropan-2-yl)-1,2-oxazole-3-carboxamide]: the results for the IC50 in assay [1], in assay [2] and in assay [3] were 67.8 nM, 0.244 nM and 35 nM, respectively.

For the molecule `CC(=O)N[C@@H]1CCN(c2n[nH]c3nccc(-c4ccc(CNC(=O)c5nc6c(s5)CCCC6)c(F)c4)c23)C1` [Example 356, N-[(4-{3-[(3R)-3-acetamidopyrrolidin-1-yl]-1H-pyrazolo[3,4-b]pyridin-4-yl}-2-fluorophenyl)methyl]-4,5,6,7-tetrahydro-1,3-benzothiazole-2-carboxamide], the IC50 in assay [1] worked out at 5380 nM; in assay [2], 11.8 nM; in assay [3], 2050 nM.

For `CC(C)c1nc(C(=O)NCc2ccc(-c3ccnc4[nH]nc(N5CC[C@@H](N)C5)c34)cc2F)co1` [Example 357, N-[(4-{3-[(3R)-3-aminopyrrolidin-1-yl]-1H-pyrazolo[3,4-b]pyridin-4-yl}-2-fluorophenyl)methyl]-2-(propan-2-yl)-1,3-oxazole-4-carboxamide], the IC50 in assay [1] amounted to 4880 nM; in assay [2], 31 nM; in assay [3], 1770 nM.

On to `C=CC(=O)N[C@@H]1CCN(c2n[nH]c3nccc(-c4ccc(CNC(=O)c5coc(C(C)C)n5)c(F)c4)c23)C1` [Example 359, N-{[2-fluoro-4-(3-{(3R)-3-[(prop-2-enoyl)amino]pyrrolidin-1-yl}-1H-pyrazolo[3,4-b]pyridin-4-yl)phenyl]methyl}-2-(propan-2-yl)-1,3-oxazole-4-carboxamide], for which the results for the IC50 in assay [1], in assay [2] and in assay [3] were 68.5 nM, 0.402 nM and 58.8 nM, respectively.
